In patent US10173991B2, “Sulfone amide linked benzothiazole inhibitors of endothelial lipase” (BRISTOL-MYERS SQUIBB COMPANY, priority 2014, dated 2019) one finds IC50 data, which are given here for 26 compounds.

pIC50: −log10 of the molar value.

Sequence of Endothelial lipase (EL) (Q9Y5X9 21-500): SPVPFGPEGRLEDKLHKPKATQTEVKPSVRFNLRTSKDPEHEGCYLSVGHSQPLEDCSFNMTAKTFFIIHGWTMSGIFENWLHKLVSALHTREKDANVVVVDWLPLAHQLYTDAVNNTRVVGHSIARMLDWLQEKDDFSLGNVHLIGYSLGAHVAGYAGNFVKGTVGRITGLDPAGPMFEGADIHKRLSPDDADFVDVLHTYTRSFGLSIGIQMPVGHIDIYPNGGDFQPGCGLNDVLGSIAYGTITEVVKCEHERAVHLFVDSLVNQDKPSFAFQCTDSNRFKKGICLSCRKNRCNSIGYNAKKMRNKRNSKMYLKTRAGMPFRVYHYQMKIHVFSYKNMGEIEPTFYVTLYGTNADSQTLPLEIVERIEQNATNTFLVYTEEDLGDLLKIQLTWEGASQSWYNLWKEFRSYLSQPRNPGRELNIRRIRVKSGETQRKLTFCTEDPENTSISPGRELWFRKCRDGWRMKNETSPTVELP

In this experiment the target is Endothelial lipase (EL) (Homo sapiens (Human), UniProt Q9Y5X9). Kind of experiment: Endothelial lipase (EL) enzymatic assay with fluorescent substrate A10070 in DMPG vesicles. Type of experiment: biochemical. An outline of the steps:
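Compounds were preincubated with enzyme for 30 min at 37° C before FRET-substrate vesicles (A10070 in DMPG, 0.11 mole fraction) were added. Reaction rates were obtained from the 300–900 sec slope of fluorescence at 490/530 nm.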
Usually pIC50 stands for the IC50 on a negative log10 scale, so that one unit is a factor of ten. A higher pIC50 goes with a low IC50. For `CN(C)C(=O)c1ccc(-c2ccc3nc(C(C(=O)NCC(=O)NC4CC4)S(=O)(=O)Cc4ccc(F)cc4)sc3c2)cc1` (centres unmarked) [Example 214, 4-[2-({[(cyclopropyl-carbamoyl)methyl]carbamoyl}(4-fluorophenyl)methanesulfonyl-methyl)-1,3-benzothiazol-6-yl]-N,N-dimethyl-benzamide], the pIC50 was 7.74.
The result for `Cc1cc2nc(C(C(=O)NCC(=O)NC3CC3)S(=O)(=O)C(C)C)sc2cc1-c1ccc(C(=O)N(C)C)cc1` (centres unmarked) [Example 215, 4-[2-({[(cyclopropyl-carbamoyl)methyl]carbamoyl} (propane-2-sulfonyl)methyl)-5-methyl-1,3-benzothiazol-6-yl]-N,N-dimethyl-benzamide] reads 7.72; that for `COCCS(=O)(=O)C(C(=O)NCC(=O)NC1CC1)c1nc2c(F)cc(-c3ccc4[nH]c(=O)ccc4c3)cc2s1` (centres unmarked) [Example 216, N-[(cyclopropyl-carbamoyl)methyl]-2-[4-fluoro-6-(2-oxo-1,2-dihydroquinolin-6-yl)-1,3-benzothiazol-2-yl]-2-(2-methoxyethane-sulfonyl) acetamide], 7.72; that for `COCCS(=O)(=O)C(C(=O)NCC(=O)NC1CC1)c1nc2c(F)cc(-c3ccc(C(F)(F)F)nc3)cc2s1` (centres unmarked) [Example 217, N-[(cyclopropyl-carbamoyl)methyl]-2-{4-fluoro-6-[6-(trifluoromethyl)pyridin-3-yl]-1,3-benzothiazol-2-yl}-2-(2-methoxyethane-sulfonyl) acetamide], 7.59.
The same measure for `COCCNC(=O)c1ccc(-c2cc(F)c3nc(C(C(=O)NCC(=O)NC4CC4)S(=O)(=O)CCOC)sc3c2)cc1` (centres unmarked) [Example 218, 4-[2-({[(cyclopropyl-carbamoyl)methyl]carbamoyl}(2-methoxyethane-sulfonyl)methyl)-4-fluoro-1,3-benzothiazol-6-yl]-N-(2-methoxyethyl) benzamide]: 7.55; for `COCCS(=O)(=O)C(C(=O)NCC(=O)NC1CC1)c1nc2cc(OC)c(-c3cccnc3F)cc2s1` (centres unmarked) [Example 219, N-[(cyclopropyl-carbamoyl)methyl]-2-[6-(2-fluoropyridin-3-yl)-5-methoxy-1,3-benzothiazol-2-yl]-2-(2-methoxyethane-sulfonyl) acetamide]: 7.41; for `COCCS(=O)(=O)C(C(=O)NCC(=O)NC1CC1)c1nc2c(F)cc(-c3ccn(C)c(=O)c3)cc2s1` (centres unmarked) [Example 220, N-[(cyclopropyl-carbamoyl)methyl]-2-[4-fluoro-6-(1-methyl-2-oxo-1,2-dihydropyridin-4-yl)-1,3-benzothiazol-2-yl]-2-(2-methoxyethane-sulfonyl) acetamide]: 7.22.
`COCCS(=O)(=O)C(C(=O)NCC(=O)NC1CC1)c1nc2c(F)cc(-c3cncnc3)cc2s1` (centres unmarked) [Example 221, N-[(cyclopropyl-carbamoyl)methyl]-2-[4-fluoro-6-(pyrimidin-5-yl)-1,3-benzothiazol-2-yl]-2-(2-methoxyethane-sulfonyl) acetamide] had a pIC50 of 7.21.
The same measure for `CC(C)(C)OC(=O)N1CCC(S(=O)(=O)C(C(=O)NCC(=O)NC2CC2)c2nc3ccc(-c4ccc(F)nc4)cc3s2)CC1` (centres unmarked) [Example 222, tert-butyl 4-({[(cyclopropyl-carbamoyl)methyl]carbamoyl}[6-(6-fluoropyridin-3-yl)-1,3-benzothiazol-2-yl]methanesulfonyl) piperidine-1-carboxylate]: 7.11; for `COCCS(=O)(=O)C(C(=O)NCC(=O)NC1CC1)c1nc2c(F)cc(-c3cnc(C4CC4)nc3)cc2s1` (centres unmarked) [Example 223, N-[(cyclopropyl-carbamoyl)methyl]-2-[6-(2-cyclopropyl-pyrimidin-5-yl)-4-fluoro-1,3-benzothiazol-2-yl]-2-(2-methoxyethane-sulfonyl) acetamide]: 7.10.
The same measure for `CN(C)c1ccc(-c2ccc3nc(C(C(=O)NCC(=O)NC4CC4)S(=O)(=O)Cc4ccc(F)cc4)sc3c2)cn1` (centres unmarked) [Example 224, N-[(cyclopropyl-carbamoyl)methyl]-2-{6-[6-(dimethylamino)pyridin-3-yl]-1,3-benzothiazol-2-yl}-2-[(4-fluorophenyl)methanesulfonyl] acetamide]: 7.07; for `COCCS(=O)(=O)C(C(=O)NCC(=O)NC1CC1)c1nc2c(F)cc(-c3ccc(=O)n(C(C)C)c3)cc2s1` (centres unmarked) [Example 225, N-[(cyclopropyl-carbamoyl)methyl]-2-{4-fluoro-6-[6-oxo-1-(propan-2-yl)-1,6-dihydropyridin-3-yl]-1,3-benzothiazol-2-yl}-2-(2-methoxyethane-sulfonyl) acetamide]: 7.06.
The result for `COCCNC(=O)c1ccc(-c2ccc3nc(C(C(=O)NCC(=O)NC4CC4)S(=O)(=O)Cc4ccc(F)cc4)sc3c2)cc1` (centres unmarked) [Example 226, 4-[2-({[(cyclopropyl-carbamoyl)methyl]carbamoyl}(4-fluorophenyl)methanesulfonyl-methyl)-1,3-benzothiazol-6-yl]-N-(2-methoxyethyl) benzamide] reads 7.04; that for `CC(C)(C)OC(=O)N1CC(S(=O)(=O)C(C(=O)NCC(=O)NC2CC2)c2nc3ccc(-c4ccc(F)nc4)cc3s2)C1` (centres unmarked) [Example 227, tert-butyl 3-({[(cyclopropyl-carbamoyl)methyl]carbamoyl}[6-(6-fluoropyridin-3-yl)-1,3-benzothiazol-2-yl]methanesulfonyl) azetidine-1-carboxylate], 6.99.
`O=C(CNC(=O)C(c1nc2ccc(-c3cccnc3F)cc2s1)S(=O)(=O)Cc1ccc(F)cc1)NC1CC1` (centres unmarked) [Example 229, N-[(cyclopropyl-carbamoyl)methyl]-2-[(4-fluorophenyl)methanesulfonyl]-2-[6-(2-fluoropyridin-3-yl)-1,3-benzothiazol-2-yl]acetamide] had a pIC50 of 6.82.
As to `CC(C)n1cc(-c2ccc3nc(C(C(=O)NCC(=O)NC4CC4)S(=O)(=O)Cc4cccc(C#N)c4)sc3c2)ccc1=O` (centres unmarked) [Example 230, 2-[(3-cyanophenyl)methanesulfonyl]-N-[(cyclopropyl-carbamoyl)methyl]-2-{6-[6-oxo-1-(propan-2-yl)-1,6-dihydropyridin-3-yl]-1,3-benzothiazol-2-yl}acetamide], the pIC50 is 7.34.
The same measure for `Cc1ncc(-c2cc3sc(C(C(=O)NCC(=O)NC4CC4)S(=O)(=O)C(C)C)nc3cc2F)cn1` (centres unmarked) [Example 231, N-[(cyclopropyl-carbamoyl)methyl]-2-[5-fluoro-6-(2-methylpyrimidin-5-yl)-1,3-benzothiazol-2-yl]-2-(propane-2-sulfonyl) acetamide]: 7.96.
The same measure for `CC(C)S(=O)(=O)C(C(=O)NCC(=O)NC1CC1)c1nc2cc(F)c(-c3cnc(=O)[nH]c3)cc2s1` (centres unmarked) [Example 232, N-[(cyclopropyl-carbamoyl)methyl]-2-[5-fluoro-6-(2-oxo-1,2-dihydropyrimidin-5-yl)-1,3-benzothiazol-2-yl]-2-(propane-2-sulfonyl) acetamide]: 6.91.
The result for `CC(C)S(=O)(=O)C(C(=O)NCC(=O)NC1CC1)c1nc2cc(F)c(-c3cn(C)c(=O)c4ccccc34)cc2s1` (centres unmarked) [Example 233, N-[(cyclopropyl-carbamoyl)methyl]-2-[5-fluoro-6-(2-methyl-1-oxo-1,2-dihydro-isoquinolin-4-yl)-1,3-benzothiazol-2-yl]-2-(propane-2-sulfonyl) acetamide] reads 7.59.
Compound `CC(C)S(=O)(=O)C(C(=O)NCC(=O)NC1CC1)c1nc2cc(F)c(-c3ccc4[nH]c(=O)ccc4c3)cc2s1` (centres unmarked) [Example 234, N-[(cyclopropyl-carbamoyl)methyl]-2-[5-fluoro-6-(2-oxo-1,2-dihydroquinolin-6-yl)-1,3-benzothiazol-2-yl]-2-(propane-2-sulfonyl) acetamide] showed a pIC50 of 8.22.
The result for `CC(C)Oc1ccc(-c2cc3sc(C(C(=O)NCC(=O)NC4CC4)S(=O)(=O)C(C)C)nc3cc2F)cn1` (centres unmarked) [Example 235, N-[(cyclopropyl-carbamoyl)methyl]-2-{5-fluoro-6-[6-(propan-2-yloxy)pyridin-3-yl]-1,3-benzothiazol-2-yl}-2-(propane-2-sulfonyl) acetamide] reads 8.22.
For `CC(C)S(=O)(=O)C(C(=O)NCC(=O)NC1CC1)c1nc2cc(F)c(-c3ccc4c(c3)CNC4=O)cc2s1` (centres unmarked) [Example 236, N-[(cyclopropyl-carbamoyl)methyl]-2-[5-fluoro-6-(1-oxo-2,3-dihydro-1H-isoindol-5-yl)-1,3-benzothiazol-2-yl]-2-(propane-2-sulfonyl) acetamide], the pIC50 was 7.80.
The result for `CC(C)S(=O)(=O)C(C(=O)NCC(=O)NC1CC1)c1nc2cc(F)c(-c3ccc4cnn(C)c4c3)cc2s1` (centres unmarked) [Example 237, N-[(cyclopropyl-carbamoyl)methyl]-2-[5-fluoro-6-(1-methyl-1H-indazol-6-yl)-1,3-benzothiazol-2-yl]-2-(propane-2-sulfonyl) acetamide] reads 8.30; that for `Cc1nc2cc(-c3cc4sc(C(C(=O)NCC(=O)NC5CC5)S(=O)(=O)C(C)C)nc4cc3F)ccc2s1` (centres unmarked) [Example 238, N-[(cyclopropyl-carbamoyl)methyl]-2-[5-fluoro-6-(2-methyl-1,3-benzothiazol-5-yl)-1,3-benzothiazol-2-yl]-2-(propane-2-sulfonyl)acetamide], 8.30.
The result for `CC(C)S(=O)(=O)C(C(=O)NCC(=O)NC1CC1)c1nc2cc(F)c(-c3ccc4c(c3)C(=O)NC4)cc2s1` (centres unmarked) [Example 239, N-[(cyclopropyl-carbamoyl)methyl]-2-[5-fluoro-6-(3-oxo-2,3-dihydro-1H-isoindol-5-yl)-1,3-benzothiazol-2-yl]-2-(propane-2-sulfonyl)acetamide] reads 7.80.
The result for `Cc1cc(-c2cc3sc(C(C(=O)NCC(=O)NC4CC4)S(=O)(=O)C(C)C)nc3cc2F)cnn1` (centres unmarked) [Example 240, N-[(cyclopropylcarbamoyl)methyl]-2-[5-fluoro-6-(6-methylpyridazin-4-yl)-1,3-benzothiazol-2-yl]-2-(propane-2-sulfonyl) acetamide] reads 6.72.
